pIC50: −log10 of the molar value. Bounds are passed on as bounds.

Usually pIC50 stands for the IC50 on a negative log10 scale, so that one unit is a factor of ten.

The target in this assay is T1, TLR9 (Homo sapiens, UniProt Q9NR96).
T1 construct: Fresh blood was collected from normal human donors; endogenous in cells; host or cells: human PBMCs from fresh donor blood
T1 sequence (Q9NR96 26-1032): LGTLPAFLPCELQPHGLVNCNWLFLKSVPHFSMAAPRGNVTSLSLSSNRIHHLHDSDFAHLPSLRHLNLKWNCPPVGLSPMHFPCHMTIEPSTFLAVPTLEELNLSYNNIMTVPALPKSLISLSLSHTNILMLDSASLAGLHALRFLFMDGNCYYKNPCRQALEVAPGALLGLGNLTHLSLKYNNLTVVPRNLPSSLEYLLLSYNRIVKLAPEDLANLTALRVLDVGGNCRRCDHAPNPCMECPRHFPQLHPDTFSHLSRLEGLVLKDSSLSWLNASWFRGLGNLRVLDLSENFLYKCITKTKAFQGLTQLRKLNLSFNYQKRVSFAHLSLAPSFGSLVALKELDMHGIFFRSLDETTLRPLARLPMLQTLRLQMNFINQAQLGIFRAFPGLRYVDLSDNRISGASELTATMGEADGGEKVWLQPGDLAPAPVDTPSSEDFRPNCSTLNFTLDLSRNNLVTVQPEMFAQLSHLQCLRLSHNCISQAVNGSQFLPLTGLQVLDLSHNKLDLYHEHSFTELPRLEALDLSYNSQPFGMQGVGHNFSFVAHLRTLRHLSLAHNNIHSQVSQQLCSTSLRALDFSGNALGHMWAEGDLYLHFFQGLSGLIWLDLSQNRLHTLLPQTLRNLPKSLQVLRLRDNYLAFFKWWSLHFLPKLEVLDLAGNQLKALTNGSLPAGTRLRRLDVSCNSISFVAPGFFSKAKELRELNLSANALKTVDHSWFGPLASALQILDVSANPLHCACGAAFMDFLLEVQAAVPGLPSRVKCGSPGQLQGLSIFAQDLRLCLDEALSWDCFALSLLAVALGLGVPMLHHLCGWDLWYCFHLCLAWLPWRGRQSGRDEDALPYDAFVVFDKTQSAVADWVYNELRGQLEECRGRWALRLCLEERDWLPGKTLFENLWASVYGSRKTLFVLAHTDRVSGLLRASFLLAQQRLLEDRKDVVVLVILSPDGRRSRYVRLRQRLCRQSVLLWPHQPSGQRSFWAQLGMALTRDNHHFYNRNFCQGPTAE
Briefly: huPBMC TLR9 Antagonist IFNα Assay. In kind it is cell-based. The conditions noted are these: human PBMCs stimulated with ODN2216 0.3 μM, 14-16 hrs; IFNα2b AlphaLISA read-out. Summed up: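 Human PBMCs from fresh donor blood (150,000 cells/well) stimulated 14–16 h at 37 °C with DOTAP-complexed ssRNA40 (final 1 μg/ml for TLR8, 10 μg/mL for TLR7) or ODN2216 (final 0.3 μM, TLR9), 0.25% DMSO, ten-point 1/3 compound dilutions. Supernatant IL-6 read by HTRF (TLR8); IFNα by IFNα2b AlphaLISA (TLR7/TLR9).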
As for `Cn1ncc2c(N3CCc4c(cnn4CC45CCC(N)(CC4)CC5)C3)nc(N)nc21` [compound 11, 4-(1-((4-aminobicyclo[2.2.2]octan-1-yl)methyl)-6,7-dihydro-1H-pyrazolo[4,3-c]pyridin-5(4H)-yl)-1-methyl-1H-pyrazolo[3,4-d]pyrimidin-6-amine], the pIC50 was below 5.18.
As for `Cc1nc(N2CCc3c(c(C)nn3CC34CCC(N)(CC3)CC4)C2)c2c(n1)c(C)nn2C` [Compound No. 26, 4-((3-methyl-5-(1,3,5-trimethyl-1H-pyrazolo[4,3-d]pyrimidin-7-yl)-4,5,6,7-tetrahydro-1H-pyrazolo[4,3-c]pyridin-1-yl)methyl)bicyclo[2.2.2]octan-1-amine], the pIC50 is below 6.00.
As to `Cc1nc(N2CCc3c(c(C)nn3CC34CCC(N5CCOCC5)(CC3)CC4)C2)c2c(C)noc2n1` [compound 37, 3,6-dimethyl-4-(3-methyl-1-((4-morpholinobicyclo[2.2.2]octan-1-yl)methyl)-6,7-dihydro-1H-pyrazolo[4,3-c]pyridin-5(4H)-yl)isoxazolo[5,4-d]pyrimidine], the pIC50 was below 5.00.
In the case of `CNCC(=O)NC12CCC(Cn3nc(C)c4c3CCN(c3cc(C)nc5c3cnn5C)C4)(CC1)CC2` [compound 121, N-(4-((5-(1,6-dimethyl-1H-pyrazolo[3,4-b]pyridin-4-yl)-3-methyl-4,5,6,7-tetrahydro-1H-pyrazolo[4,3-c]pyridin-1-yl)methyl)bicyclo[2.2.2]octan-1-yl)-2-(methylamino)acetamide], the pIC50 is 5.84.
For the compound `Cc1cc(N2CCc3c(c(C)nn3CC34CCC(NC(=O)OC(C)(C)C)(CC3)C4)C2)c2cnn(C)c2n1` [compound 148, tert-butyl (4-((5-(1,6-dimethyl-1H-pyrazolo[3,4-b]pyridin-4-yl)-3-methyl-4,5,6,7-tetrahydro-1H-pyrazolo[4,3-c]pyridin-1-yl)methyl)bicyclo[2.2.1]heptan-1-yl)carbamate], the pIC50 is below 5.00.
As for `Cc1nc(N2CCc3c(c(C)nn3CC34CCC(N5CCCCC5)(CC3)CC4)C2)c2cn[nH]c2n1` [compound 29, 6-methyl-4-(3-methyl-1-((4-(piperidin-1-yl)bicyclo[2.2.2]octan-1-yl)methyl)-6,7-dihydro-1H-pyrazolo[4,3-c]pyridin-5(4H)-yl)-1H-pyrazolo[3,4-d]pyrimidine], the pIC50 is below 5.00.
Consider `Cc1nc(N2CCc3c(c(C)nn3CC34CCC(NC(=O)[C@@H]5CNCCO5)(CC3)CC4)C2)c2c(n1)c(C)nn2C` [compound 34, (S)-N-(4-((3-methyl-5-(1,3,5-trimethyl-1H-pyrazolo[4,3-d]pyrimidin-7-yl)-4,5,6,7-tetrahydro-1H-pyrazolo[4,3-c]pyridin-1-yl)methyl)bicyclo[2.2.2]octan-1-yl)morpholine-2-carboxamide], for which the pIC50 is 5.24.
For the compound `Cc1cc(N2CCc3c(c(C)nn3CC34CCC(N5CCN(C)CC5=O)(CC3)CC4)C2)c2cnn(C)c2n1` [Compound No. 108, 1-(4-((5-(1,6-dimethyl-1H-pyrazolo[3,4-b]pyridin-4-yl)-3-methyl-4,5,6,7-tetrahydro-1H-pyrazolo[4,3-c]pyridin-1-yl)methyl)bicyclo[2.2.2]octan-1-yl)-4-methylpiperazin-2-one], the pIC50 is 5.06.
With `Cc1cc(N2CCc3c(c(C)nn3CC34CCC(NC(=O)[C@H]5COCCN5)(CC3)CC4)C2)c2cnn(C)c2n1` [Compound No. 9, (R)—N-(4-((5-(1,6-dimethyl-1H-pyrazolo[3,4-b]pyridin-4-yl)-3-methyl-4,5,6,7-tetrahydro-1H-pyrazolo[4,3-c]pyridin-1-yl)methyl)bicyclo[2.2.2]octan-1-yl)morpholine-3-carboxamide], the pIC50 is 5.29.
Under `Cc1cc(N2CCc3c(c(C)nn3CC34CCC(N(C)C)(CC3)CC4)C2)c2cnn(C)c2n1` [Compound No. 43, 4-((5-(1,6-dimethyl-1H-pyrazolo[3,4-b]pyridin-4-yl)-3-methyl-4,5,6,7-tetrahydro-1H-pyrazolo[4,3-c]pyridin-1-yl)methyl)-N,N-dimethylbicyclo[2.2.2]octan-1-amine] stands 6.29; under `CCNCC(=O)NC12CCC(Cn3nc(C)c4c3CCN(c3nc(C)nc5[nH]ncc35)C4)(CC1)CC2` [compound 20, 2-(ethylamino)-N-(4-((3-methyl-5-(6-methyl-1H-pyrazolo[3,4-d]pyrimidin-4-yl)-4,5,6,7-tetrahydro-1H-pyrazolo[4,3-c]pyridin-1-yl)methyl)bicyclo[2.2.2]octan-1-yl)acetamide], below 5.03.

These data come from patent publication US20240376099A1, “COMPOUNDS AND COMPOSITIONS AS INHIBITORS OF ENDOSOMAL TOLL-LIKE RECEPTORS” (Novartis AG, priority 2016, published 2024).
